{"source": "BindingDB's records for doi:10.1111/j.1476-5381.1994.tb14064.x", "about": "(Glaxo Group Research, 1994)", "key": {"[1]": {"molecular_target": "Mu-type opioid receptor (Rattus norvegicus, UniProt P33535)"}, "[2]": {"molecular_target": "Substance-P receptor (Rattus norvegicus, UniProt P14600)", "sequence (P14600 whole entry)": "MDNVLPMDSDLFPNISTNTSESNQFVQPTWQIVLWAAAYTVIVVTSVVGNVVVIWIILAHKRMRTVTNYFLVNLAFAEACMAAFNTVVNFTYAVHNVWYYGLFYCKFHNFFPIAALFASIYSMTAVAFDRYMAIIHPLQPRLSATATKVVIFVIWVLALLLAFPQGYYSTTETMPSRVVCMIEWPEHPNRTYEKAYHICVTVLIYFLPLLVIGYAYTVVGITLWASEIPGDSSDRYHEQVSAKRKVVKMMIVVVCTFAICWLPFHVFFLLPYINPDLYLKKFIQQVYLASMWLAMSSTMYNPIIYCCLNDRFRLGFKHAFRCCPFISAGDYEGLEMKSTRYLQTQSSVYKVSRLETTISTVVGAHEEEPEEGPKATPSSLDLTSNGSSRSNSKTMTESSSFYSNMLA"}, "[3]": {"molecular_target": "Adenosine receptor A2a (Rattus norvegicus, UniProt P30543)", "sequence (P30543 whole entry)": "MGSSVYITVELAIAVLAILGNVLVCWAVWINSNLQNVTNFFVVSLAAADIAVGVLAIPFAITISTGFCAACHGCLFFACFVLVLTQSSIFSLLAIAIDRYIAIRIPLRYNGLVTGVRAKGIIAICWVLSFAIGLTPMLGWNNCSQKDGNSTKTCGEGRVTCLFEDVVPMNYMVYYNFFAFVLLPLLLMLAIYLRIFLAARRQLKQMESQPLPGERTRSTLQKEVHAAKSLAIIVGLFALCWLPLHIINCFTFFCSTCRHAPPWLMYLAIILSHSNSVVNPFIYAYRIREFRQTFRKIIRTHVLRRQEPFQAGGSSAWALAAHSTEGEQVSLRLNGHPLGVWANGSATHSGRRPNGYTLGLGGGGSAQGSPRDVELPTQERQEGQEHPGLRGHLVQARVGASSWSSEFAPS"}, "[4]": {"molecular_target": "Gamma-aminobutyric acid (GABA) B receptor 1 (Rattus norvegicus, UniProt Q6MFX8)"}, "[5]": {"molecular_target": "Kappa-type opioid receptor (Rattus norvegicus, UniProt P34975)"}, "[6]": {"molecular_target": "D(2) dopamine receptor (Rattus norvegicus, UniProt P61169)", "sequence (P61169 whole entry)": "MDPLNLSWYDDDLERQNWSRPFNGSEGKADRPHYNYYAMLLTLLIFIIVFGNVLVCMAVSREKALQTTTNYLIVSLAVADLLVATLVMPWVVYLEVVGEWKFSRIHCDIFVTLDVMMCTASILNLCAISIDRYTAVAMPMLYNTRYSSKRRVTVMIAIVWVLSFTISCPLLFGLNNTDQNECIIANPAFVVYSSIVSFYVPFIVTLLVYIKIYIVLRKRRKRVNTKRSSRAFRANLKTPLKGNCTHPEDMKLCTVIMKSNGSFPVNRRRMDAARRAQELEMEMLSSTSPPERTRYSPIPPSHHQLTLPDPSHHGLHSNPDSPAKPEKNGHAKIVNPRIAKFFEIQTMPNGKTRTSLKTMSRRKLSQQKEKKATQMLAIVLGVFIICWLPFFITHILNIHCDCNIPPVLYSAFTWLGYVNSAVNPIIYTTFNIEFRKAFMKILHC"}, "[7]": {"molecular_target": "Vasopressin V2 receptor (Rattus norvegicus, UniProt Q00788)", "sequence (Q00788 whole entry)": "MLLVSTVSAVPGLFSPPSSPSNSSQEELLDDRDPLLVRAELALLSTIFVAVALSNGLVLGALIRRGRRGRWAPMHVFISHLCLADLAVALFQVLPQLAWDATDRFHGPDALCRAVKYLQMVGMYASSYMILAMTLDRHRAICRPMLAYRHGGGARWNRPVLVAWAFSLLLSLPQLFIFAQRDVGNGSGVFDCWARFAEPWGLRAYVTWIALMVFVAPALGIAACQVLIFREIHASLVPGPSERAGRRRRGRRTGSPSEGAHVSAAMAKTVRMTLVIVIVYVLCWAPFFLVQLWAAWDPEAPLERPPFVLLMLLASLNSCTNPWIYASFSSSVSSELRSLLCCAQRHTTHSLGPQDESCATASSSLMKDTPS"}, "[8]": {"molecular_target": "Beta-1 adrenergic receptor (Rattus norvegicus, UniProt P18090)"}, "[9]": {"molecular_target": "Endothelin-converting enzyme 1 (Rattus norvegicus, UniProt P42893)"}, "[10]": {"molecular_target": "Adenosine receptor A1 (Rattus norvegicus, UniProt P25099)", "sequence (P25099 whole entry)": "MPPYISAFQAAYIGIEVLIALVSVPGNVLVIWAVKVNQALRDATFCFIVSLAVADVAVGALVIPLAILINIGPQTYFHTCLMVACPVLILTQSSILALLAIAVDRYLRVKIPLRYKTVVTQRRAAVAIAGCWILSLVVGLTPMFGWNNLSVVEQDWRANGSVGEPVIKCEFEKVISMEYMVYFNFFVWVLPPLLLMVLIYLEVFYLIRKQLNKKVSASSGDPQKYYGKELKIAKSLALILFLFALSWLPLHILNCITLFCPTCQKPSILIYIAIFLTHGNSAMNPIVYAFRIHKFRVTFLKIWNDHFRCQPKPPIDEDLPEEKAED"}, "[11]": {"molecular_target": "Alpha-1A adrenergic receptor (Rattus norvegicus, UniProt P43140)"}, "[12]": {"molecular_target": "Gamma-aminobutyric acid receptor subunit alpha-1 (Rattus norvegicus, UniProt P62813)"}, "[13]": {"molecular_target": "5-hydroxytryptamine receptor 2C (Sus scrofa, UniProt K7GSR7)"}, "[14]": {"molecular_target": "5-hydroxytryptamine receptor 3A (Rattus norvegicus, UniProt P35563)"}, "[15]": {"molecular_target": "Alpha-2C adrenergic receptor (Rattus norvegicus, UniProt P22086)", "sequence (P22086 whole entry)": "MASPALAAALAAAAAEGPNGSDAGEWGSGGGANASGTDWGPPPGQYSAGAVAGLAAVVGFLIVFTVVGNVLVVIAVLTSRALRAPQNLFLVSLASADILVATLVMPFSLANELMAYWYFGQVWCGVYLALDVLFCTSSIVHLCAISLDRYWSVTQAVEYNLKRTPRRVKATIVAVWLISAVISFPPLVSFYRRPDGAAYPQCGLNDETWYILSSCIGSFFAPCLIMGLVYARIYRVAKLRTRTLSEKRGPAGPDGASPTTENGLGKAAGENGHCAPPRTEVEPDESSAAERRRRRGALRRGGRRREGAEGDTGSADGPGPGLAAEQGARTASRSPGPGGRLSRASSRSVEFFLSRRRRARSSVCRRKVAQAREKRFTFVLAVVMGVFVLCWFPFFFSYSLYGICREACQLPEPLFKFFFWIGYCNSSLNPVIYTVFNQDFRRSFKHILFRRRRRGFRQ"}, "[16]": {"molecular_target": "Beta-2 adrenergic receptor (Cavia porcellus, UniProt Q8K4Z4)"}, "[17]": {"molecular_target": "B1 bradykinin receptor (Rattus norvegicus, UniProt P97583)"}, "[18]": {"molecular_target": "Bombesin receptor subtype-3 (Rattus norvegicus, UniProt Q8K418)", "sequence (Q8K418 whole entry)": "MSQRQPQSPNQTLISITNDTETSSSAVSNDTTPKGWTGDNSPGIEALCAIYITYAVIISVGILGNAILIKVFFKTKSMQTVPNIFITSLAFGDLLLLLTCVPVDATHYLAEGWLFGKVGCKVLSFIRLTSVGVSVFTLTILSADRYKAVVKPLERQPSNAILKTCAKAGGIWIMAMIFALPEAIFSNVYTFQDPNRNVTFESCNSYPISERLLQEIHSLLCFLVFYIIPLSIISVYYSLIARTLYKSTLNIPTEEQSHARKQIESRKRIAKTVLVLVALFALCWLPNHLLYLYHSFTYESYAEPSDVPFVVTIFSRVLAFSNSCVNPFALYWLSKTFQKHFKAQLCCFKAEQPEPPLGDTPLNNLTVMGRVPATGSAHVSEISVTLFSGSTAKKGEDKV"}, "[19]": {"molecular_target": "Calcitonin gene-related peptide 1 (Rattus norvegicus, UniProt P01256)"}, "[20]": {"molecular_target": "Gastrin/cholecystokinin type B receptor (Rattus norvegicus, UniProt P30553)"}, "[21]": {"molecular_target": "Muscarinic acetylcholine receptor M2 (Rattus norvegicus, UniProt P10980)"}, "[22]": {"molecular_target": "Muscarinic acetylcholine receptor M1 (Rattus norvegicus, UniProt P08482)"}, "[23]": {"molecular_target": "Muscarinic acetylcholine receptor M3 (Rattus norvegicus, UniProt P08483)", "sequence (P08483 whole entry)": "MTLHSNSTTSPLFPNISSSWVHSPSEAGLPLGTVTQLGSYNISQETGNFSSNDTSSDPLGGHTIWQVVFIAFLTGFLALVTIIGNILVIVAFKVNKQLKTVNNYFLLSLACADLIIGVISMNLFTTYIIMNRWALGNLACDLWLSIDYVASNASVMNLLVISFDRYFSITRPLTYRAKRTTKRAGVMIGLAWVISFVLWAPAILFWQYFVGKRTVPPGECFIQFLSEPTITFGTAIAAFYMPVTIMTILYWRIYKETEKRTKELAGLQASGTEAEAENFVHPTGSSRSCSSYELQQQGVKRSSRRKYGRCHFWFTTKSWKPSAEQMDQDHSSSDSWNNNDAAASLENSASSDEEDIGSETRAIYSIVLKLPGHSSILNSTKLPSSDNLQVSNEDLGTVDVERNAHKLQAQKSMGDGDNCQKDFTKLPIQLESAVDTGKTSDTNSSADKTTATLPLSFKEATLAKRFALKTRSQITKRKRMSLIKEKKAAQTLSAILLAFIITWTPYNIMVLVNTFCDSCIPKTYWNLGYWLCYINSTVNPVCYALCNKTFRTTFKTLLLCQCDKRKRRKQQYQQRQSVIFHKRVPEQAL"}, "[24]": {"molecular_target": "D(1A) dopamine receptor (Rattus norvegicus, UniProt P18901)", "sequence (P18901 whole entry)": "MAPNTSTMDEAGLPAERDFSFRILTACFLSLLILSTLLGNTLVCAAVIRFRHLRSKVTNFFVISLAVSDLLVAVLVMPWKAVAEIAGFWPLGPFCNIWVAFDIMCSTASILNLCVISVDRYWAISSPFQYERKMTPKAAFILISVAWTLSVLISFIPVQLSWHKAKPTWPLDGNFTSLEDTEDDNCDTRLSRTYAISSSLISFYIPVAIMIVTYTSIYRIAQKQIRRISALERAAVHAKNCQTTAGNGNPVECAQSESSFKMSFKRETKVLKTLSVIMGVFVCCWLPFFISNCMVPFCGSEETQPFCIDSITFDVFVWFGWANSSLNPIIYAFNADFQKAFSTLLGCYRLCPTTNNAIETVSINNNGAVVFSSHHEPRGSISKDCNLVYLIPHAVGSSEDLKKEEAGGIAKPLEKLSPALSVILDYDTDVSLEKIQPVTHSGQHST"}, "[25]": {"molecular_target": "Galanin peptides (Rattus norvegicus, UniProt P10683)"}, "[26]": {"molecular_target": "Glutamate receptor ionotropic, NMDA 1 (Rattus norvegicus, UniProt P35439)"}, "[27]": {"molecular_target": "Glycine amidinotransferase, mitochondrial (Rattus norvegicus, UniProt P50442)"}, "[28]": {"molecular_target": "Histamine H1 receptor (Rattus norvegicus, UniProt P31390)", "sequence (P31390 whole entry)": "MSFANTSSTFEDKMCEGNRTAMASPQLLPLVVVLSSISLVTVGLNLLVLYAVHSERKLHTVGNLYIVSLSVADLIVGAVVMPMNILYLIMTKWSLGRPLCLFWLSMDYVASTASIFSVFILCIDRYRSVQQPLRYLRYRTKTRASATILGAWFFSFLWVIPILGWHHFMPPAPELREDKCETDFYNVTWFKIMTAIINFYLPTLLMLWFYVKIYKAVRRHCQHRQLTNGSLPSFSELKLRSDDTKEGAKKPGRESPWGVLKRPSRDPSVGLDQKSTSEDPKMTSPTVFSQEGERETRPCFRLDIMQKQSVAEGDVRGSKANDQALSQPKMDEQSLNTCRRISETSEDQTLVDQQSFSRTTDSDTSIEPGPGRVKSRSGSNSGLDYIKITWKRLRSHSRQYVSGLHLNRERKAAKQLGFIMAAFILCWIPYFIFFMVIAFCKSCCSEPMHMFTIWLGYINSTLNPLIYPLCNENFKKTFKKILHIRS"}, "[29]": {"molecular_target": "Hrh3 protein (Rattus norvegicus, UniProt Q5PPG3)"}, "[30]": {"molecular_target": "Nicotinic acetylcholine receptor (Rattus leucopus, UniProt Q62594)", "sequence (Q62594 whole entry)": "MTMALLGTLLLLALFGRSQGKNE"}, "[31]": {"molecular_target": "Substance-K receptor (Rattus norvegicus, UniProt P16610)"}, "[32]": {"molecular_target": "Neuromedin-K receptor (Mus musculus, UniProt P47937)", "sequence (P47937 whole entry)": "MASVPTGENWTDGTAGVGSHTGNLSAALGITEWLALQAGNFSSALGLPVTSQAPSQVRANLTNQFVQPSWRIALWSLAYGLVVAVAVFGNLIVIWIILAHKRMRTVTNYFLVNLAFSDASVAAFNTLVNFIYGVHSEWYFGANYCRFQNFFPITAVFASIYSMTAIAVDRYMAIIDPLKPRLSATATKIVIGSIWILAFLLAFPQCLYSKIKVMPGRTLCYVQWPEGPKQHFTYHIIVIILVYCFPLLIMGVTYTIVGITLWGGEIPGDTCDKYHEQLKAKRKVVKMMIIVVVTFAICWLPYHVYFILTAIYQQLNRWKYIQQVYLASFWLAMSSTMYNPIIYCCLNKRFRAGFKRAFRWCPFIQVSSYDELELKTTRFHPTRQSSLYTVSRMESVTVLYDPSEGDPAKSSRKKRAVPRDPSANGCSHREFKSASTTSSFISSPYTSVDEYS"}, "[33]": {"molecular_target": "Pro-neuropeptide Y (Rattus norvegicus, UniProt P07808)"}, "[34]": {"molecular_target": "Somatostatin (Rattus norvegicus, UniProt P60042)"}, "[35]": {"molecular_target": "Rat vasopressin-neurophysin (Rattus norvegicus, UniProt Q6LEI5)", "sequence (Q6LEI5 whole entry)": "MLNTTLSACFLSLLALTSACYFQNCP"}, "[36]": {"molecular_target": "VIP peptides (Rattus norvegicus, UniProt P01283)", "sequence (P01283 125-152 limits assumed)": "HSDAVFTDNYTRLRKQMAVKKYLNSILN"}}, "data": [{"smiles": "Cn1cc(C(=O)OCC2CCN(CCNS(C)(=O)=O)CC2)c2ccccc21", "note": "[GR 113808]", "values": [{"measurement": "Ki", "setting": "[1]", "value": "> 10", "unit": "µM"}, {"measurement": "Ki", "setting": "[2]", "value": "> 10", "unit": "µM"}, {"measurement": "Ki", "setting": "[3]", "value": "> 10", "unit": "µM"}, {"measurement": "Ki", "setting": "[4]", "value": "> 10", "unit": "µM"}, {"measurement": "Ki", "setting": "[5]", "value": "> 10", "unit": "µM"}, {"measurement": "Ki", "setting": "[6]", "value": "> 10", "unit": "µM"}, {"measurement": "Ki", "setting": "[7]", "value": "> 10", "unit": "µM"}, {"measurement": "Ki", "setting": "[8]", "value": 7.94, "unit": "µM"}, {"measurement": "Ki", "setting": "[9]", "value": "> 10", "unit": "µM"}, {"measurement": "Ki", "setting": "[10]", "value": "> 10", "unit": "µM"}, {"measurement": "Ki", "setting": "[11]", "value": "> 10", "unit": "µM"}, {"measurement": "Ki", "setting": "[12]", "value": "> 10", "unit": "µM"}, {"measurement": "Ki", "setting": "[13]", "value": "> 10", "unit": "µM"}, {"measurement": "Ki", "setting": "[14]", "value": 1, "unit": "µM"}, {"measurement": "Ki", "setting": "[15]", "value": "> 10", "unit": "µM"}, {"measurement": "Ki", "setting": "[16]", "value": "> 10", "unit": "µM"}, {"measurement": "Ki", "setting": "[17]", "value": "> 10", "unit": "µM"}, {"measurement": "Ki", "setting": "[18]", "value": "> 10", "unit": "µM"}, {"measurement": "Ki", "setting": "[19]", "value": "> 10", "unit": "µM"}, {"measurement": "Ki", "setting": "[20]", "value": "> 10", "unit": "µM"}, {"measurement": "Ki", "setting": "[21]", "value": "> 10", "unit": "µM"}, {"measurement": "Ki", "setting": "[22]", "value": 6.31, "unit": "µM"}, {"measurement": "Ki", "setting": "[23]", "value": "> 10", "unit": "µM"}, {"measurement": "Ki", "setting": "[24]", "value": "> 10", "unit": "µM"}, {"measurement": "Ki", "setting": "[25]", "value": "> 10", "unit": "µM"}, {"measurement": "Ki", "setting": "[26]", "value": "> 10", "unit": "µM"}, {"measurement": "Ki", "setting": "[27]", "value": "> 10", "unit": "µM"}, {"measurement": "Ki", "setting": "[28]", "value": "> 10", "unit": "µM"}, {"measurement": "Ki", "setting": "[29]", "value": "> 10", "unit": "µM"}, {"measurement": "Ki", "setting": "[30]", "value": "> 10", "unit": "µM"}, {"measurement": "Ki", "setting": "[31]", "value": "> 10", "unit": "µM"}, {"measurement": "Ki", "setting": "[32]", "value": "> 10", "unit": "µM"}, {"measurement": "Ki", "setting": "[33]", "value": "> 10", "unit": "µM"}, {"measurement": "Ki", "setting": "[34]", "value": "> 10", "unit": "µM"}, {"measurement": "Ki", "setting": "[35]", "value": "> 10", "unit": "µM"}, {"measurement": "Ki", "setting": "[36]", "value": "> 10", "unit": "µM"}]}]}
